Reference: PMC11131246, “Molecular determinants for brain targeting by peptides: a meta-analysis approach with experimental validation” (Fluids and Barriers of the CNS, 2024)
Each block holds one molecule with its values, some of them ahead of it. Residues, ends and D or L forms follow the SMILES beside them. *: point of attachment. NODAGA = O=C(O)CN1CCN(CC(=O)O)CCN(C(CCC(=O)*)C(=O)O)CC1; CF = 5(6)-carboxyfluorescein

Experiments:
[1] = Biodistribution of 67Ga-radiolabeled peptides; parameters: species or system mouse; conditions: female, CD1, mouse, in vivo, iv, 100 uCi, total radioactivity, Tissue distribution
Procedure: All animal experiments were performed in compliance with national and EU legislation for good practices on laboratory animal science. The animals were housed in a temperature and humidity-controlled environment with a 12 h light/12 h dark schedule. Biodistribution of radiolabeled peptides was performed on 7 weeks old CD1 female mice.
Animals were intravenously injected into the tail vein with 100 µL of a 25 µM saline solution of the ^67Ga-peptide with a radioactivity around 100 µCi. The mice were euthanized by cervical dislocation at 2 min and 1 h after injection. The dose administered and the radioactivity in the euthanized animals was measured using a dose calibrator (Carpintec CRC-15W, Ramsey, USA). The difference between the radioactivity in the injected and the euthanized animals was assumed to be due to excretion. Brain and tissues of interest without previous perfusion were dissected, washed, and weighed, and their radioactivity was measured using a γ counter (Hidex AMG, Hidex, Turku, Finland). The uptake in the brain and tissues of interest was calculated and expressed as a percentage of injected radioactivity dose per gram of tissue (% ID/g).

[2] = Analytical RP-HPLC retention time (used as indication of hydrophobicity); type: physicochemical; conditions: analytical reverse phase HPLC, UV chromatogram; free and CF-labelled peptides

Molecule: CC[C@H](C)[C@H](NC(=O)[C@H](C)NC(=O)CNC(=O)[C@H](CCCCN)NC(=O)[C@H](Cc1ccc(O)cc1)NC(=O)[C@H](CCCCN)NC(=O)CCC(C(=O)O)N1CCN(CC(=O)O)CCN(CC(=O)O)CC1)C(=O)N[C@H](C(=O)NCC(=O)N[C@@H](CC(N)=O)C(=O)N[C@H](C(=O)N[C@@H](CCCCN)C(N)=O)[C@@H](C)CC)[C@@H](C)CC (some centres unmarked) [67Ga-BBBpS_1, metal not drawn] ({NODAGA}-KYKGAIIGNIK-NH2)
tissue uptake at 2 min ([1]; Blood): 12.6 ± 2.1 %ID/g | tissue uptake at 1 h ([1]; Blood): 0.5 ± 0.3 %ID/g | tissue uptake at 2 min ([1]; Bone): 3.4 ± 0.3 %ID/g | tissue uptake at 1 h ([1]; Bone): 0.3 ± 0.1 %ID/g | tissue uptake at 2 min ([1]; Brain (brain uptake)): 0.66 ± 0.16 %ID/g | tissue uptake at 1 h ([1]; Brain (brain uptake)): 0.04 ± 0.02 %ID/g | tissue uptake at 2 min ([1]; Heart): 3.4 ± 1 %ID/g | tissue uptake at 1 h ([1]; Heart): 0.3 ± 0.1 %ID/g | tissue uptake at 2 min ([1]; Intestine): 1.7 ± 0.3 %ID/g | tissue uptake at 1 h ([1]; Intestine): 0.2 ± 0.1 %ID/g | tissue uptake at 2 min ([1]; Kidney): 33.8 ± 3.8 %ID/g | tissue uptake at 1 h ([1]; Kidney): 2.4 ± 1.8 %ID/g | tissue uptake at 2 min ([1]; Liver): 4.1 ± 0.8 %ID/g | tissue uptake at 1 h ([1]; Liver): 0.3 ± 0.2 %ID/g | tissue uptake at 2 min ([1]; Lung): 6.1 ± 0.7 %ID/g | tissue uptake at 1 h ([1]; Lung): 2.5 ± 0.3 %ID/g | tissue uptake at 2 min ([1]; Muscle): 2.4 ± 0.2 %ID/g | tissue uptake at 1 h ([1]; Muscle): 0.3 ± 0.1 %ID/g | tissue uptake at 2 min ([1]; Spleen): 2 ± 0.2 %ID/g | tissue uptake at 1 h ([1]; Spleen): 0.2 ± 0.1 %ID/g | tissue uptake at 2 min ([1]; Stomach): 1.4 ± 0.5 %ID/g | tissue uptake at 1 h ([1]; Stomach): 0.1 %ID/g

Molecule: CC[C@H](C)[C@H](NC(=O)[C@H](C)NC(=O)CNC(=O)[C@H](CO)NC(=O)[C@H](CCCNC(=N)N)NC(=O)[C@H](Cc1ccc(O)cc1)NC(=O)[C@H](CCCCN)NC(=O)CCC(C(=O)O)N1CCN(CC(=O)O)CCN(CC(=O)O)CC1)C(=O)N[C@H](C(=O)N[C@H](C(=O)NCC(=O)N[C@@H](Cc1ccc(O)cc1)C(N)=O)[C@@H](C)CC)[C@@H](C)O (some centres unmarked) [67Ga-BBBpS_2, metal not drawn] ({NODAGA}-KYRSGAITIGY-NH2)
tissue uptake at 2 min ([1]; Blood): 13.4 ± 3.8 %ID/g | tissue uptake at 1 h ([1]; Blood): 1.4 ± 0.9 %ID/g | tissue uptake at 2 min ([1]; Bone): 3.1 ± 0.1 %ID/g | tissue uptake at 1 h ([1]; Bone): 0.8 ± 0.5 %ID/g | tissue uptake at 2 min ([1]; Brain (brain uptake)): 0.52 ± 0.23 %ID/g | tissue uptake at 1 h ([1]; Brain (brain uptake)): 0.09 ± 0.03 %ID/g | tissue uptake at 2 min ([1]; Heart): 3.1 ± 0.7 %ID/g | tissue uptake at 1 h ([1]; Heart): 0.8 ± 0.1 %ID/g | tissue uptake at 2 min ([1]; Intestine): 1.5 ± 0.2 %ID/g | tissue uptake at 1 h ([1]; Intestine): 0.4 %ID/g | tissue uptake at 2 min ([1]; Kidney): 18.1 ± 2.1 %ID/g | tissue uptake at 1 h ([1]; Kidney): 1.4 ± 0.6 %ID/g | tissue uptake at 2 min ([1]; Liver): 3.5 ± 1.2 %ID/g | tissue uptake at 1 h ([1]; Liver): 0.6 ± 0.2 %ID/g | tissue uptake at 2 min ([1]; Lung): 6 ± 1.2 %ID/g | tissue uptake at 1 h ([1]; Lung): 1.7 ± 0.4 %ID/g | tissue uptake at 2 min ([1]; Muscle): 2 ± 0.4 %ID/g | tissue uptake at 1 h ([1]; Muscle): 0.7 ± 0.1 %ID/g | tissue uptake at 2 min ([1]; Spleen): 1.9 ± 0.6 %ID/g | tissue uptake at 1 h ([1]; Spleen): 0.5 ± 0.2 %ID/g | tissue uptake at 2 min ([1]; Stomach): 1 ± 0.1 %ID/g | tissue uptake at 1 h ([1]; Stomach): 0.2 ± 0.1 %ID/g

Molecule: CC[C@H](C)[C@H](NC(=O)[C@H](Cc1c[nH]cn1)NC(=O)CCC(C(=O)O)N1CCN(CC(=O)O)CCN(CC(=O)O)CC1)C(=O)N[C@@H](CCC(N)=O)C(=O)N[C@@H](CC(C)C)C(=O)N[C@@H](CO)C(=O)N1CCC[C@H]1C(=O)N[C@@H](Cc1ccccc1)C(=O)N[C@@H](CO)C(=O)N[C@@H](CCC(N)=O)C(=O)N[C@@H](CO)C(=O)N[C@@H](Cc1c[nH]c2ccccc12)C(=O)N[C@@H](CCCNC(=N)N)C(N)=O (some centres unmarked) [67Ga-BBBpS_5, metal not drawn] ({NODAGA}-HIQLSPFSQSWR-NH2)
tissue uptake at 2 min ([1]; Blood): 10.7 ± 2.1 %ID/g | tissue uptake at 1 h ([1]; Blood): 1.2 ± 0.3 %ID/g | tissue uptake at 2 min ([1]; Bone): 3.8 ± 0.5 %ID/g | tissue uptake at 1 h ([1]; Bone): 0.6 ± 0.4 %ID/g | tissue uptake at 2 min ([1]; Brain (brain uptake)): 0.74 ± 0.01 %ID/g | tissue uptake at 1 h ([1]; Brain (brain uptake)): 0.05 ± 0.01 %ID/g | tissue uptake at 2 min ([1]; Heart): 3.8 ± 0.8 %ID/g | tissue uptake at 1 h ([1]; Heart): 0.5 %ID/g | tissue uptake at 2 min ([1]; Intestine): 2.2 ± 0.2 %ID/g | tissue uptake at 1 h ([1]; Intestine): 0.4 ± 0.2 %ID/g | tissue uptake at 2 min ([1]; Kidney): 22 ± 3.6 %ID/g | tissue uptake at 1 h ([1]; Kidney): 1.1 ± 0.6 %ID/g | tissue uptake at 2 min ([1]; Liver): 5.2 ± 1.1 %ID/g | tissue uptake at 1 h ([1]; Liver): 1 ± 0.4 %ID/g | tissue uptake at 2 min ([1]; Lung): 7.8 ± 2.8 %ID/g | tissue uptake at 1 h ([1]; Lung): 1.2 ± 0.2 %ID/g | tissue uptake at 2 min ([1]; Muscle): 3.1 ± 0.8 %ID/g | tissue uptake at 1 h ([1]; Muscle): 0.5 ± 0.2 %ID/g | tissue uptake at 2 min ([1]; Spleen): 2.2 ± 0.1 %ID/g | tissue uptake at 1 h ([1]; Spleen): 0.3 ± 0.1 %ID/g | tissue uptake at 2 min ([1]; Stomach): 2.6 %ID/g | tissue uptake at 1 h ([1]; Stomach): 0.3 ± 0.4 %ID/g

Molecule: CF-APWHLSSQYSRT-amide ({CF}-APWHLSSQYSRT-NH2) [CF-CTP, 5(6)-carboxyfluorescein-labelled CTP]
HPLC tR [2]: 8.45 min

Molecule: CF-KKKKQPPKPKKPKTQEKKKKQPPKPKR-amide [CF-P1746c27, 5(6)-carboxyfluorescein-labelled P1746c27]
HPLC tR [2]: 4.23 min

Molecule: CF-KWCFRVCYRGICYRRCR-amide [CF-TI, 5(6)-carboxyfluorescein-labelled TI]
HPLC tR [2]: 8.11 min

Molecule: CF-RPKPQQFFGLM-amide [CF-SPA, 5(6)-carboxyfluorescein-labelled SPA]
HPLC tR [2]: 9.25 min

More lines, now with the values ahead:

tissue uptake at 2 min ([1]; Blood): 11.6 ± 1.5 %ID/g | tissue uptake at 1 h ([1]; Blood): 0.8 ± 0.4 %ID/g | tissue uptake at 2 min ([1]; Bone): 3.4 ± 0.3 %ID/g | tissue uptake at 1 h ([1]; Bone): 0.5 ± 0.1 %ID/g | tissue uptake at 2 min ([1]; Brain (brain uptake)): 0.61 ± 0.11 %ID/g | tissue uptake at 1 h ([1]; Brain (brain uptake)): 0.05 ± 0.01 %ID/g | tissue uptake at 2 min ([1]; Heart): 3.3 ± 0.1 %ID/g | tissue uptake at 1 h ([1]; Heart): 0.3 %ID/g | tissue uptake at 2 min ([1]; Intestine): 1.9 ± 0.2 %ID/g | tissue uptake at 1 h ([1]; Intestine): 0.2 %ID/g | tissue uptake at 2 min ([1]; Kidney): 30 ± 3.7 %ID/g | tissue uptake at 1 h ([1]; Kidney): 3.1 ± 0.3 %ID/g | tissue uptake at 2 min ([1]; Liver): 4.7 ± 0.4 %ID/g | tissue uptake at 1 h ([1]; Liver): 2.6 ± 0.3 %ID/g | tissue uptake at 2 min ([1]; Lung): 5.4 ± 0.6 %ID/g | tissue uptake at 1 h ([1]; Lung): 0.7 ± 0.1 %ID/g | tissue uptake at 2 min ([1]; Muscle): 2.6 ± 0.3 %ID/g | tissue uptake at 1 h ([1]; Muscle): 0.2 ± 0.1 %ID/g | tissue uptake at 2 min ([1]; Spleen): 2.6 ± 0.3 %ID/g | tissue uptake at 1 h ([1]; Spleen): 0.9 ± 0.2 %ID/g | tissue uptake at 2 min ([1]; Stomach): 1.5 ± 0.2 %ID/g | tissue uptake at 1 h ([1]; Stomach): 0.3 ± 0.1 %ID/g
Molecule: CC(C)C[C@H](NC(=O)[C@H](Cc1c[nH]c2ccccc12)NC(=O)[C@H](Cc1ccccc1)NC(=O)[C@H](CCC(N)=O)NC(=O)[C@H](C)NC(=O)[C@H](CO)NC(=O)[C@H](CC(=O)O)NC(=O)[C@@H]1CCCN1C(=O)[C@H](CCCNC(=N)N)NC(=O)[C@H](CC(N)=O)NC(=O)CCC(C(=O)O)N1CCN(CC(=O)O)CCN(CC(=O)O)CC1)C(=O)N[C@@H](Cc1c[nH]cn1)C(=O)N[C@@H](Cc1c[nH]cn1)C(N)=O (some centres unmarked) [67Ga-BBBpS_9, metal not drawn] ({NODAGA}-NRPDSAQFWLHH-NH2)

HPLC tR [2]: 7.95 min
Molecule: CF-EEGRLYMRYYSPTTRRYG-amide [CF-CPP(II), 5(6)-carboxyfluorescein-labelled CPP(II)]

HPLC tR [2]: 9.50 min
Molecule: CF-HIQLSPFSQSWR-amide [CF-HAP-2, 5(6)-carboxyfluorescein-labelled HAP-2]

HPLC tR [2]: 7.05 min
Molecule: CF-KYKGAIIGNIK-amide [CF-A, 5(6)-carboxyfluorescein-labelled A]

HPLC tR [2]: 7.62 min
Molecule: CF-KYRSGAITIGY-amide [CF-B, 5(6)-carboxyfluorescein-labelled B]

HPLC tR [2]: 13.51 min
Molecule: CF-LKTLTETLKELTKTLTEL-amide [CF-KLA13, 5(6)-carboxyfluorescein-labelled KLA13]

HPLC tR [2]: 8.01 min
Molecule: CF-NRPDSAQFWLHH-amide [CF-Peptide third, 5(6)-carboxyfluorescein-labelled Peptide third]

HPLC tR [2]: 7.89 min
Molecule: CF-YDEEGGGE-amide [CF-YDEGE, 5(6)-carboxyfluorescein-labelled YDEGE]

HPLC tR [2]: 8.63 min
Molecule: CF-YKEATSTFTNITYRGT-amide [CF-Peptide b3-1, 5(6)-carboxyfluorescein-labelled Peptide b3-1]

HPLC tR [2]: 8.79 min
Molecule: CF-YTQDFNKFHTFPQTAIGVGAP-amide [CF-hCR(12–32), 5(6)-carboxyfluorescein-labelled hCR(12–32)]
